Patent publication US12459899B2, “Isoquinolinone derivatives, method for preparing the same, and pharmaceutical composition for preventing or treating poly(ADP-ribose) polymerase-1-related diseases, comprising the same as active ingredient” (DIGMBIO. INC., priority 2019, dated 2025)
Counter-ions that a name gives are not always drawn.

Molecular target: PARP-1 (poly[ADP-ribose] polymerase 1) enzyme (Homo sapiens (Human), UniProt P09874)
Test: PARP-1 (poly[ADP-ribose] polymerase 1) enzyme inhibitory ability, Trevigen assay kit
Type: biochemical
Conditions: 1 nM compound; read-out: PAR P-1 Inhibitory ability at 1 nM
Outline: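 Human PARP-1 activity was measured with a Trevigen assay kit in histone-coated 96-well plates rehydrated with 50 μL of 1×PARP buffer for 30 minutes. Enzyme (0.5 unit/well) and compound were preincubated 10 minutes at room temperature, then 25 μL of 1×PARP cocktail with biotinylated NAD and activated DNA was added for 1 hour.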

Sequence of PARP-1 (poly[ADP-ribose] polymerase 1) enzyme (P09874 whole entry): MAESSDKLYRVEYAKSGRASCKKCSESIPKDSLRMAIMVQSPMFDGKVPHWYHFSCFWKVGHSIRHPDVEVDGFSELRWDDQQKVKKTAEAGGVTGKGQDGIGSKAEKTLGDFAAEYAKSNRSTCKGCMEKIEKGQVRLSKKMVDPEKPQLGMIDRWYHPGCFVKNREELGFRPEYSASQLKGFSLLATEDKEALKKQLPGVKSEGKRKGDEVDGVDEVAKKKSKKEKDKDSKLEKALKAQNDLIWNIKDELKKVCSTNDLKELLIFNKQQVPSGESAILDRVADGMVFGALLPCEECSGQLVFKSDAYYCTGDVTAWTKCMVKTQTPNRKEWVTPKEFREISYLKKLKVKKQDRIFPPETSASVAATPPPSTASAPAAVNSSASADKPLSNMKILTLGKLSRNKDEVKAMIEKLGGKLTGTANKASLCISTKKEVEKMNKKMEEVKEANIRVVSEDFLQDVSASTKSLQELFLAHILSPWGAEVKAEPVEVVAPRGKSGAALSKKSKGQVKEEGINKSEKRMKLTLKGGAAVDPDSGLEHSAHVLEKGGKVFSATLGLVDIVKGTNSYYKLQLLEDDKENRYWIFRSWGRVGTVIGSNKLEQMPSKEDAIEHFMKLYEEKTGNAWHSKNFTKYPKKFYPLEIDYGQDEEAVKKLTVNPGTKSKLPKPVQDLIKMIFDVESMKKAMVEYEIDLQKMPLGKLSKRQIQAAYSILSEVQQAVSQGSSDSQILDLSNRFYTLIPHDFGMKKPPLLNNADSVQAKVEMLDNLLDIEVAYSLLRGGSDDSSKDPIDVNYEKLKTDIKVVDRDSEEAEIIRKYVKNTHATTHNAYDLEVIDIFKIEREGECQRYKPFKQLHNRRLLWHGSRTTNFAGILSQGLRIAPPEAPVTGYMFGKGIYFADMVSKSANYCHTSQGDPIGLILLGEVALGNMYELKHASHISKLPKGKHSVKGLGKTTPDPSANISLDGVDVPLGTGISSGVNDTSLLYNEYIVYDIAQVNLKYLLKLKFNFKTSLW

Structure (SMILES)	inhibition at 0.001 µM
Cc1ccc(F)c2c(=O)[nH]c(CCC(=O)N3CCN(c4cccc(F)c4)CC3)cc12 [Example 142, 8-fluoro-3-(3-(4-(3-fluorophenyl)piperazin-1-yl)-3-oxopropyl)-5-methylisoquinolin-1(2H)-one]	< 50%
Cc1cc(F)cc2c(=O)[nH]c(CCCN3CCN(c4ccc(C#N)cn4)CC3)cc12 [Example 36, 6-(4-(3-(7-fluoro-5-methyl-1-oxo-1,2-dihydroisoquinolin-3-yl)propyl)piperazin-1-yl)nicotinonitrile]	50 to 80%
Cc1ccc(F)c2c(=O)[nH]c(CCC(=O)N3CCN(c4ccc(Cl)cc4)CC3)cc12 [Example 131, 3-(3-(4-(4-chlorophenyl)piperazin-1-yl)-3-oxopropyl)-8-fluoro-5-methylisoquinolin-1(2H)-one]	< 50%
N#Cc1ccc(C2=CCN(C(=O)CCc3cc4ccc(F)cc4c(=O)[nH]3)CC2)nc1 [Example 96, 1′-(3-(7-fluoro-1-oxo-1,2-dihydroisoquinolin-3-yl)propanoyl)-1′,2′,3′,6′-tetrahydro-[2,4′-bipyridine]-5-carbonitrile]	< 50%
Cc1cc(F)cc2c(=O)[nH]c(CCC(=O)N3CC=C(c4ccnc(F)c4)CC3)cc12 [Example 168, 7-fluoro-3-(3-(2′-fluoro-3,6-dihydro-[4,4′-bipyridine]-1(2H)-yl)-3-oxopropyl)-5-methylisoquinolin-1(2H)-one]	< 50%
N#Cc1ccc(N2CCN(C(=O)CCc3cc4ccc(F)cc4c(=O)[nH]3)CC2)cc1 [Example 94, 4-(4-(3-(7-fluoro-1-oxo-1,2-dihydroisoquinolin-3-yl)propanoyl)piperazin-1-yl)benzonitrile]	< 50%
Cc1ccc(F)c2c(=O)[nH]c(CCC(=O)N3CCN(C(=O)C4CCC4)CC3)cc12 [Example 179, 3-(3-(4-(cyclobutanecarbonyl)piperazin-1-yl)-3-oxopropyl)-8-fluoro-5-methylisoquinolin-1(2H)-one]	< 50%
Cc1cc(F)cc2c(=O)[nH]c(CCCN3CCN(c4ccc(C(F)(F)F)cc4)CC3)cc12 [Example 39, 7-fluoro-5-methyl-3-(3-(4-(4-(trifluoromethyl)phenyl)piperazin-1-yl)propyl)isoquinolin-1(2H)-one]	< 50%
Cc1ccc(F)c2c(=O)[nH]c(CCC(=O)N3CCN(c4ccc(F)cc4F)CC3)cc12 [Example 132, 3-(3-(4-(2,4-difluorophenyl)piperazin-1-yl)-3-oxopropyl)-8-fluoro-5-methylisoquinolin-1(2H)-one]	< 50%
Cc1cc(F)cc2c(=O)[nH]c(CCC(=O)N3CCN(c4ccc(C#N)cc4F)CC3)cc12 [Example 154, 3-fluoro-4-(4-(3-(7-fluoro-5-methyl-1-oxo-1,2-dihydroisoquinolin-3-yl)propanoyl)piperazin-1-yl)benzonitrile]	< 50%
COC(=O)c1ccc(NC2CCN(C(=O)CCc3cc4c(C)cc(F)cc4c(=O)[nH]3)CC2)cc1 [Example 267, methyl 4-((1-(3-(7-fluoro-5-methyl-1-oxo-1,2-dihydroisoquinolin-3-yl)propanoyl)piperidin-4-yl)amino)benzoate]	< 50%
N#Cc1ccc(C2=CCN(C(=O)CCc3cc4ncccc4c(=O)[nH]3)CC2)cc1 [Example 245, 4-(1-(3-(5-oxo-5,6-dihydro-1,6-naphthyridin-7-yl)propanoyl)-1,2,3,6-tetrahydropyridin-4-yl)benzonitrile]	< 50%
Cc1cc(F)cc2c(=O)[nH]c(CCCN3CC=C(c4ccc(F)cn4)CC3)cc12 [Example 62, 7-fluoro-3-(3-(5-fluoro-3′,6′-dihydro-[2,4′-bipyridine]-1′(2′H)-yl)propyl)-5-methylisoquinolin-1(2H)-one]	< 50%
N#Cc1ccc(C2=CCN(CCCc3cc4ccc(F)cc4c(=O)[nH]3)CC2)nc1 [Example 50, 1′-(3-(7-fluoro-1-oxo-1,2-dihydroisoquinolin-3-yl)propyl)-1′,2′,3′,6′-tetrahydro-[2,4′-bipyridine]-5-carbonitrile]	< 50%
Cc1cc(F)cc2c(=O)[nH]c(CCC(=O)N3CCC(Oc4ccc(C#N)cc4)CC3)cc12 [Example 262, 4-((1-(3-(7-fluoro-5-methyl-1-oxo-1,2-dihydroisoquinolin-3-yl)propanoyl)piperidin-4-yl)oxy)benzonitrile]	< 50%
Cc1ccc(F)c2c(=O)[nH]c(CCC(=O)N3CCN(C(=O)[C@@H](N)Cc4ccccc4)CC3)cc12 [Example 195, 3-(3-(4-(L-phenylalanyl)piperazin-1-yl)-3-oxopropyl)-8-fluoro-5-methylisoquinolin-1(2H)-one hydrochloride]	< 50%
N#Cc1ccc(N2CCN(CCCc3cc4ncccc4c(=O)[nH]3)CC2)cc1 [Example 221, 4-(4-(3-(5-oxo-5,6-dihydro-1,6-naphthyridin-7-yl)propyl)piperazin-1-yl)benzonitrile]	50 to 80%
CC(=O)Nc1cccc(N2CCN(CCCc3cc4ccc(F)cc4c(=O)[nH]3)CC2)c1 [Example 20, N-(3-(4-(3-(7-fluoro-1-oxo-1,2-dihydroisoquinolin-3-yl)propyl)piperazin-1-yl)phenyl)acetamide]	< 50%
N#Cc1ccc(OC2CCN(CCCc3cc4cccc(F)c4c(=O)[nH]3)CC2)cc1 [Example 254, 4-((1-(3-(8-fluoro-1-oxo-1,2-dihydroisoquinolin-3-yl)propyl)piperidin-4-yl)oxy)benzonitrile]	< 50%
O=C(CCc1cc2ccc(F)cc2c(=O)[nH]1)N1CCN(C(=O)C2CCCC2)CC1 [Example 176, 3-(3-(4-(cyclopentanecarbonyl)piperazin-1-yl)-3-oxopropyl)-7-fluoroisoquinolin-1(2H)-one]	< 50%
Cc1ccc(F)c2c(=O)[nH]c(CCCN3CC=C(c4ccc(C#N)cc4)CC3)cc12 [Example 54, 4-(1-(3-(8-fluoro-5-methyl-1-oxo-1,2-dihydroisoquinolin-3-yl)propyl)-1,2,3,6-tetrahydropyridin-4-yl)benzonitrile]	< 50%
O=c1[nH]c(CCCN2CCN(c3cccc([N+](=O)[O-])c3)CC2)cc2ccc(F)cc12 [Example 11, 7-fluoro-3-(3-(4-(3-nitrophenyl)piperazin-1-yl)propyl)isoquinolin-1(2H)-one]	< 50%
N#Cc1ccc(C2=CCN(C(=O)CCc3cc4cccc(F)c4c(=O)[nH]3)CC2)cn1 [Example 93, 1′-(3-(8-fluoro-1-oxo-1,2-dihydroisoquinolin-3-yl)propanoyl)-1′,2′,3′,6′-tetrahydro-[3,4′-bipyridine]-6-carbonitrile]	< 50%
Cc1cc(F)cc2c(=O)[nH]c(CCCN3CC=C(c4ccc(C(F)(F)F)cc4)CC3)cc12 [Example 64, 7-fluoro-5-methyl-3-(3-(4-(4-(trifluoromethyl)phenyl)-3,6-dihydropyridin-1(2H)-yl)propyl)isoquinolin-1(2H)-one]	< 50%
Cc1ccc(F)c2c(=O)[nH]c(CCC(=O)N3CCN(c4ccccc4C#N)CC3)cc12 [Example 127, 2-(4-(3-(8-fluoro-5-methyl-1-oxo-1,2-dihydroisoquinolin-3-yl)propanoyl)piperazin-1-yl)benzonitrile]	< 50%

Same assay, conditions: PARP-1 enzyme activity

Structure (SMILES)	IC50
N#Cc1ccc(C2=CCN(CCCc3cc4ccc(F)cc4c(=O)[nH]3)CC2)nc1 [Example 50, 1′-(3-(7-fluoro-1-oxo-1,2-dihydroisoquinolin-3-yl)propyl)-1′,2′,3′,6′-tetrahydro-[2,4′-bipyridine]-5-carbonitrile]	1.88 nM
Cc1ccc(F)c2c(=O)[nH]c(CCCN3CC=C(c4ccc(C#N)cc4)CC3)cc12 [Example 54, 4-(1-(3-(8-fluoro-5-methyl-1-oxo-1,2-dihydroisoquinolin-3-yl)propyl)-1,2,3,6-tetrahydropyridin-4-yl)benzonitrile]	1.42 nM
